Source: patent US11992497B2 (priority 2021, dated 2024)
Read-outs that look alike come from different tables or passages of the source.

Columns and labels:
HT29 = assay: GI50 by clonogenic assay; type: cell-based; conditions: Homo sapiens
Procedure: (§1) For colonogenic assay, the compounds were tested at 4 concentrations for 1 week or 2 weeks on 4 colon cancer cell lines. The compounds, concentrations, colon cancer cell line panel and end time point tested are the following: • CBG: 0 μM, 10 μM, 20 μM, 40 μM, and 80 μM. • Compound 1: 0 μM, 5 μM, 7.5 μM, 10 μM, and 20 μM. • Compound 2: 0 μM, 10 μM, 20 μM, 40 μM, and 80 μM. • Colon cancer cell line panel and end time point: SW620, HCT15, HCT116, 1 week; HT29, 2 weeks
(§2) Four colon cancer cell lines of SW620, HCT15, HT29, and HCT116 were included in the colon cancer cell line panel.
(§3) CBG, compound 1 and compound 2 were dissolved in DMSO at a concentration of 10 mM and stored at −20° C.
(§4) Evaluation of DM compounds treatment-induced growth inhibition was performed to determine the GI50 of four colon cancer cell lines with MTS assay or clonogenic assay. Each experiment was repeated in triplicate. In GraphPad Prism, data were log-transformed and fit with a nonlinear curve to calculate the GI50.
(§5) Clonogenic assay. cells were plated at 6 well plates at a density of 2,500 cells per well. After 24 hours, cells were treated with DM compounds at increasing concentrations or DMSO vehicle and incubated for 1 week or 2 weeks. Cells were then fixed and stained with 1% crystal violet (Sigma-Aldrich) solution. Quantification was performed using ImageJ. Each experiment was repeated in triplicate. In GraphPad Prism, data were log-transformed and fit with a nonlinear curve to calculate the GI50.

HCT116 = assay: GI50 by clonogenic assay; type: cell-based; conditions: Homo sapiens
Procedure: as §1, §2, §3, §4, §5

HCT15 = assay: GI50 by clonogenic assay; type: cell-based; conditions: Homo sapiens
Procedure: as §1, §2, §3, §4, §5

SW620 = assay: GI50 by clonogenic assay; type: cell-based; conditions: Homo sapiens
Procedure: as §1, §2, §3, §4, §5

[1] = PK study of CBG, Compound 1 and Compound 2, PO or IP; type: in vivo, male Sprague Dawley rats; conditions: CBG 30 mg/kg PO and IP; Compound 1 31.5 mg/kg PO; Compound 2 32.7 mg/kg PO
Procedure: This study evaluated the pharmacokinetics of (E)-2-(3,7-dimethylocta-2,6-dien-1-yl)-3-methoxy-5-pentylphenol (1) and (E)-2-(3,7-dimethylocta-2,6-dien-1-yl)-1,3-dimethoxy-5-pentylbenzene (2) following oral (PO) or intraperitoneal (IP) administration to male Sprague Dawley rats.
For the oral formulation the test article was added to the appropriate amount of Maisine and stirred until uniform. Next Labrasol was added to the formulation and allowed to stir until uniform. Finally, water will be slowly added to the stirring formulation to achieve the final volume.
For the IP formulation the test article was added to the appropriate amount of ethanol and stirred until uniform. Next, the appropriate amount of tween-20 was added to the stirred formulation. Finally, the appropriate amount of saline was slowly added to the stirred formulation to achieve the final volume.
Animals were fasted the evening prior to dosing with food returned at 4 h postdose, and the animals weighed on the morning of dose administration.
IP doses were administered via injection to the intraperitoneal region. PO doses were delivered into the stomach via syringe and gavage tube.
Blood was collected from via direct jugular stick or from the tail vein. Blood samples were kept on ice until being centrifuged at 3200 RPM for 10 minutes at ˜5° C. within 1 h of collection. Plasma was split into 2 cryovials in approximately equal volumes (0.05 mLs) and stored at −20° C.±5° C. until shipment.

[2] = HT-29, 336 h, HT29 cells, 2 weeks, read-out: GI50 (clonogenic assay)
[3] = HT-29, clonogenic assay, HT29, average of N1-N3, read-out: GI50 AVG
[4] = HT-29, clonogenic assay, HT29, replicate N1, read-out: GI50 N1
[5] = HT-29, clonogenic assay, HT29, replicate N2, read-out: GI50 N2
[6] = HT-29, clonogenic assay, HT29, replicate N3, read-out: GI50 N3
[7] = HCT-116, 168 h, HCT116 cells, 1 week, read-out: GI50 (clonogenic assay)
[8] = HCT-116, clonogenic assay, HCT116, average of N1-N3, read-out: GI50 AVG
[9] = HCT-116, clonogenic assay, HCT116, replicate N1, read-out: GI50 N1
[10] = HCT-116, clonogenic assay, HCT116, replicate N2, read-out: GI50 N2
[11] = HCT-116, clonogenic assay, HCT116, replicate N3, read-out: GI50 N3
[12] = HCT-15, 168 h, HCT15 cells, 1 week, read-out: GI50 (clonogenic assay)
[13] = HCT-15, clonogenic assay, HCT15, average of N1-N3, read-out: GI50 AVG
[14] = HCT-15, clonogenic assay, HCT15, replicate N1, read-out: GI50 N1
[15] = HCT-15, clonogenic assay, HCT15, replicate N2, read-out: GI50 N2
[16] = HCT-15, clonogenic assay, HCT15, replicate N3, read-out: GI50 N3
[17] = SW-620, 168 h, SW620 cells, 1 week, read-out: GI50 (clonogenic assay)
[18] = SW-620, clonogenic assay, SW620, average of N1-N3, read-out: GI50 AVG
[19] = SW-620, clonogenic assay, SW620, replicate N1, read-out: GI50 N1
[20] = SW-620, clonogenic assay, SW620, replicate N2, read-out: GI50 N2
[21] = SW-620, clonogenic assay, SW620, replicate N3, read-out: GI50 N3

| SMILES | GI50 (HT29; [2]) | GI50 (HT29; [3]) | GI50 (HT29; [4]) | GI50 (HT29; [5]) | GI50 (HT29; [6]) | GI50 (HCT116; [7]) | GI50 (HCT116; [8]) | GI50 (HCT116; [9]) | GI50 (HCT116; [10]) | GI50 (HCT116; [11]) | GI50 (HCT15; [12]) | GI50 (HCT15; [13]) | GI50 (HCT15; [14]) | GI50 (HCT15; [15]) | GI50 (HCT15; [16]) | GI50 (SW620; [17]) | GI50 (SW620; [18]) | GI50 (SW620; [19]) | GI50 (SW620; [20]) | GI50 (SW620; [21]) | other results |
| --- | --- | --- | --- | --- | --- | --- | --- | --- | --- | --- | --- | --- | --- | --- | --- | --- | --- | --- | --- | --- | --- |
| CCCCCc1cc(OC)c(C/C=C(\C)CCC=C(C)C)c(OC)c1 [Compound 2, (E)-2-(3,7-dimethylocta-2,6-dien-1-yl)-1,3-dimethoxy-5-pentylbenzene] | 34.5 ± 14.4 µM | 34.5 µM | 51.1 µM | 25 µM | 27.3 µM | 43.1 ± 7.68 µM | 43.1 µM | 53.4 µM | 40.6 µM | 35.1 µM | 35.9 ± 8.95 µM | 35.9 µM | 46.2 µM | 30.5 µM | 31 µM | 41.7 ± 5.9 µM | 41.7 µM | 47.8 µM | 41.2 µM | 36 µM | glucuronidation / glucuronide formation in plasma (in words) [1]: completely blocked glucuronide formation |
| CCCCCc1cc(O)c(C/C=C(\C)CCC=C(C)C)c(OC)c1 [Compound 1, (E)-2-(3,7-dimethylocta-2,6-dien-1-yl)-3-methoxy-5-pentylphenol] | 2.95 ± 1.41 µM | 2.95 µM | 1.33 µM | 3.87 µM | 3.66 µM | 5.51 ± 1.51 µM | 5.51 µM | 4.79 µM | 7.61 µM | 4.12 µM | 5.03 ± 2.16 µM | 5.03 µM | 3.64 µM | 7.52 µM | 3.94 µM | 5.35 ± 1.11 µM | 5.35 µM | 5.76 µM | 4.09 µM | 6.2 µM | glucuronidation / glucuronide formation in plasma (in words) [1]: significantly reduced levels of glucuronidation compared to CBG |
| CCCCCc1cc(O)c(C/C=C(\C)CCC=C(C)C)c(O)c1 [CBG, cannabigerol] | 9.09 ± 1.71 µM | 9.09 µM | 8.11 µM | 8.09 µM | 11.1 µM | 17.4 ± 4.91 µM | 17.4 µM | 21.1 µM | 20.7 µM | 10.5 µM | 17.4 ± 2.89 µM | 17.4 µM | 15.6 µM | 20.7 µM | 15.9 µM | 20.6 ± 1.95 µM | 20.6 µM | 18.9 µM | 22.7 µM | 20.1 µM | glucuronidation / glucuronide formation in plasma (in words) [1]: converted by glucuronidation to CBG-glucoronide |
